Molecular target: T1, collagenase
T1 construct: gene colG; usual product is native clostridial collagenase
Assay: FALGPA hydrolysis, ninhydrin detection at […] nm
Format: biochemical
Details: pH 7.4, 37 °C, TES, calcium chloride; chelates the metal cofactor

O=C(O)CN(CCN(CC(=O)O)CC(=O)O)CC(=O)O [EDTA]
Collagenase / IC50: 51.2 ± 0.12 µg/mL

— article PMC11857742, “Antiaging Potential of Lipophilic Extracts of Caulerpa prolifera” (Marine Drugs, 2025)
